The structures appear in SMILES notation. Calls of active or inactive are those of the source. The rule behind the calls is not given here.

This assay has as its system Broad 7084-01 inhibitor HTS, set 2. The assay is described as follows: single-concentration hits, screen 7084 set 2 (AID 977613).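 Note: host cells are infected with parasite promastigotes that become internalized.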

For `CN1C(=O)c2cc(NC(=O)Cc3cccs3)ccc2OC[C@H]2O[C@H](CC(=O)N[C@@H]3CCN(Cc4ccccc4)C3)CC[C@H]21`, the active concentration is > 10 µM (inactive).

In the case of `O=C(Cc1ccncc1)N1CC(=O)N2[C@@H](CO)[C@H](c3ccc(Br)cc3)[C@@H]2C1`, the active concentration was > 10 µM (inactive).

Regarding `O=C(Nc1ccc(F)cc1)N1CC(=O)N2[C@H](CO)[C@@H](c3ccc(C#Cc4cccnc4)cc3)[C@H]2C1`, the active concentration is > 10 µM (inactive).

For the compound `COCC(=O)N1CC2(CCN(C(=O)c3ccccn3)CC2)c2c(n(C)c3cc(OC)ccc23)[C@H]1CO`, the active concentration is > 10 µM (inactive).

As to `O=C(Cc1ccncc1)N1CC(=O)N2[C@H](CO)[C@H](c3ccc(Br)cc3)[C@@H]2C1`, the active concentration is > 10 µM (inactive).

For the compound `Cc1ccc(CN2CC(=O)N3[C@H](C2)[C@H](c2ccc(-c4ccccc4F)cc2)[C@@H]3CO)cc1`, the active concentration is > 10 µM (inactive).

For the compound `O=C(CC1CC1)N1CC(=O)N2[C@H](C1)[C@@H](c1ccc(/C=C/c3ccccc3)cc1)[C@@H]2CO`, the active concentration was > 10 µM (inactive).

As to `CCN1[C@@H]2c3ccc(-c4ccccc4F)c(=O)n3C[C@H]1[C@H](CO)[C@H]2C(=O)NCc1ccc(F)cc1`, the active concentration is > 10 µM (inactive).

As for `CCCNC(=O)N1[C@H](CO)[C@@H](c2ccccc2-c2ccccc2F)[C@@H]1C#N`, the active concentration is > 10 µM (inactive).

Regarding `CN1C[C@@H]2[C@H](c3ccccc31)[C@H](CO)N2Cc1ccccc1Cl`, the active concentration is > 10 µM (inactive).

`CN(C)CC(=O)N1[C@H](CO)[C@H](c2ccccc2-c2ccccc2F)[C@@H]1C#N`: the active concentration is > 10 µM (inactive).

For `COc1cccc(S(=O)(=O)N2CCCCN3[C@H](C2)[C@@H](c2ccc(C#CCC(C)C)cc2)[C@@H]3CO)c1`, the active concentration is > 10 µM (inactive).

Regarding `CN1C[C@H]2[C@@H](c3ccccc31)[C@H](CO)N2Cc1ccccc1Cl`, the active concentration was > 10 µM (inactive).

Turning to `O=C(C[C@@H]1CC[C@H]2[C@@H](COC[C@@H](O)CN2Cc2cccc(C(F)(F)F)c2)O1)NCc1ccccc1`, the active concentration is > 10 µM (inactive).

As to `COc1cccc(-c2ccc3c(c2)[C@H]2[C@H](CCN2C(=O)Cc2ccccc2)[C@H](CO)N3)c1`, the active concentration was > 10 µM (inactive).

Regarding `O=C(C[C@@H]1CC[C@@H]2[C@H](COC[C@H](O)CN2CC2CC2)O1)NCc1ccc(Cl)cc1`, the active concentration is > 10 µM (inactive).

Regarding `CC=Cc1ccc2n(c1=O)C[C@H]1[C@H](CO)[C@@H](C(=O)OC)N(CCc3ccccc3)[C@@H]21` (mixture of isomers), the active concentration was > 10 µM (inactive).

In the case of `CN1CCN(C(=O)C[C@H]2CC[C@H]3[C@@H](COC[C@@H](O)CN3C(=O)C3CC3)O2)CC1`, the active concentration is > 10 µM (inactive).

Take `COc1ccc2c3c([nH]c2c1)[C@H](CO)N(C(=O)C1CCOCC1)CC31CN(C(=O)NC(C)C)C1`: the active concentration is > 10 µM (inactive).

For `CN1c2ccc(C#Cc3cccnc3)cc2[C@H]2[C@H](CCN2C(=O)C2CCCCC2)[C@H]1CO`, the active concentration is > 10 µM (inactive).

For the compound `COc1ccccc1CNC(=O)C[C@@H]1CC[C@H]2[C@@H](COC[C@@H](O)CN2C(=O)Nc2ccccc2)O1`, the active concentration is > 10 µM (inactive).

Consider `CCCNC(=O)N1[C@@H]2Cn3c(ccc(-c4ccccc4OC)c3=O)[C@H]1[C@@H](C(=O)NCC)[C@@H]2CO`, for which the active concentration was > 10 µM (inactive).

As for `O=C(C[C@H]1CC[C@@H]2[C@H](COC[C@@H](O)CN2S(=O)(=O)c2cccc(Cl)c2)O1)NC1CCC1`, the active concentration was > 10 µM (inactive).

For the compound `O=C(Nc1ccccc1)N1CC(=O)N2[C@@H](CO)[C@H](c3ccc(C#CC4CCCCC4)cc3)[C@@H]2C1`, the active concentration is > 10 µM (inactive).

In the case of `COc1ccc(C#Cc2ccc3c(c2)[C@H]2[C@H](CCN2C(=O)CN2CCOCC2)[C@H](CO)N3C)cc1`, the active concentration was > 10 µM (inactive).

Turning to `CN1CCN(C(=O)C[C@@H]2CC[C@@H]3[C@H](COC[C@H](O)CN3CC3CC3)O2)CC1`, the active concentration is > 10 µM (inactive).

Take `COc1ccc(CN2[C@H](CO)[C@H]3c4ccccc4NC[C@H]32)cc1`: the active concentration was < 10 µM.

Regarding `O=C(Nc1cc(F)ccc1F)N1CCCCN2[C@@H](CO)[C@@H](c3ccc(C4=CCCCC4)cc3)[C@@H]2C1`, the active concentration is > 10 µM (inactive).

`CCCC#Cc1ccc([C@H]2[C@@H](CO)N3C(=O)CN(S(=O)(=O)c4ccccc4C)C[C@H]23)cc1`: the active concentration was > 10 µM (inactive).

`O=C(C1CCCC1)N1CC2(C1)[C@H](c1ccccc1)[C@@H](CO)N2CC1CC1`: the active concentration is > 10 µM (inactive).

In the case of `COc1ccc2c3c([nH]c2c1)[C@@H](CO)N(C(=O)Nc1ccc(F)cc1)CC31CN(S(=O)(=O)c2ccc(C)cc2)C1`, the active concentration was > 10 µM (inactive).

With `O=C(c1ccc2c(c1)OCO2)N1C[C@H]2[C@@H](c3ccccc31)[C@@H](CO)N2C(=O)CC1CC1`, the active concentration was > 10 µM (inactive).

`COc1ccc(CN2[C@@H]3CNc4ccccc4[C@@H]3[C@@H]2CO)cc1`: the active concentration was > 10 µM (inactive).

Regarding `CCS(=O)(=O)N1CC(=O)N2[C@H](C1)[C@@H](c1ccc(C#CC3CCCCC3)cc1)[C@@H]2CO`, the active concentration is > 10 µM (inactive).

Consider `CCCNC(=O)N1CC(=O)N2[C@H](CO)[C@@H](c3ccc(C#CCC4CCCC4)cc3)[C@H]2C1`, for which the active concentration was > 10 µM (inactive).

As to `O=C(Nc1ccccc1)N1CC(=O)N2[C@H](CO)[C@@H](c3ccc(C#CC4CCCCC4)cc3)[C@@H]2C1`, the active concentration is > 10 µM (inactive).

Regarding `COc1ccc2c3c(n(C)c2c1)[C@H](CO)N(C(=O)Nc1ccccc1F)CC31CN(C(=O)c2ccccc2F)C1`, the active concentration is > 10 µM (inactive).

On to `O=C(C[C@@H]1CC[C@@H]2[C@H](COC[C@@H](O)CN2C(=O)c2cccnc2)O1)NCc1ccccc1`, for which the active concentration was > 10 µM (inactive).

On to `CN1C(=O)c2cc(NC(=O)Nc3ccccc3Cl)ccc2OC[C@H]2O[C@H](CC(=O)NCCCN3CCOCC3)CC[C@@H]21`, for which the active concentration was > 10 µM (inactive).

On to `CN(C)CC(=O)N1[C@@H](CO)[C@@H](c2ccccc2)C12CN(CCC(F)(F)F)C2`, for which the active concentration is > 10 µM (inactive).

Consider `O=C(C[C@@H]1CC[C@H]2[C@@H](COC[C@H](O)CN2CC2CCOCC2)O1)NCC1CCCCC1`, for which the active concentration was > 10 µM (inactive).

Turning to `C/C=C/c1ccc2c(c1)[C@@H]1[C@@H](CCN1C(=O)Cc1cccnc1)[C@@H](CO)N2C`, the active concentration is > 10 µM (inactive).

`COc1ccc2c3c(n(C)c2c1)[C@@H](CO)N(C)CC31CN(CC2CC2)C1`: the active concentration was > 10 µM (inactive).

As to `Cc1cccc(S(=O)(=O)N2C[C@@H](O)COC[C@H]3O[C@@H](CC(=O)Nc4ccccc4)CC[C@@H]32)c1`, the active concentration is > 10 µM (inactive).

`O=C(NCC1CCCCC1)[C@@H]1[C@@H](CO)[C@@H]2Cn3c(ccc(-c4cncnc4)c3=O)[C@H]1N2`: the active concentration was > 10 µM (inactive).

Consider `O=S(=O)(c1ccc(F)cc1)N1CCCCN2[C@H](CO)[C@@H](c3ccc(-c4cncnc4)cc3)[C@H]2C1`, for which the active concentration is > 10 µM (inactive).

The values are drawn from PubChem BioAssay AID977613 (Broad Institute, 2014).
